This is an account of results in patent EP0065226A2, “Sulfenamides, process for their preparation, their utilisation as medicines and their preparation” (BAYER AG, priority 1981, dated 1982).

The subject of the first test is Leukozytenmigration. Put plainly: Inhibition of leukocyte migration, drug-soaked sponge implanted under the dorsal skin of rats. It is filed as in vivo, Ratten. Conditions: Dosis, lokal 10 mg/Ratte; sponge soaked with compound under the dorsal skin. From the text: Die erfindungsgemäßen Sulfenamide sind auch […] wirksam. Diese Wirkung wird durch die Messung der Hemmung der Leukozytenmigration nach an sich bekannten Methoden nachgewiesen (vgl. Higgs et al., Biochemical Pharmacology 28, 1959 (1979) und Eur. J. Pharmacol. 66, 81 (1980)). In der nachfolgenden Tabelle 2 sind die Wirkungen einiger beispielhafter Sulfenamide nach lokaler Applikation, durch Einführen eines mit Wirkstoff getränkten Schwämmchens unter die Rückenhaut von Ratten, zusammengefaßt.
On to `c1ccc(SNc2ncccn2)cc1` [Beispiel 2], for which the “Hemmung der Leukozyten-migration (Kontrolle = 0 %)” value was determined as 45%.

`c1ccc(SNc2nc[nH]n2)cc1` [Beispiel 11]: the “Hemmung der Leukozyten-migration (Kontrolle = 0 %)” value is given as 76%.

As for `c1ccc(SNc2nc(-c3ccccc3)ns2)cc1` [Beispiel 12], the “Hemmung der Leukozyten-migration (Kontrolle = 0 %)” value was 35%.

Regarding `Cc1nsc(NSc2ccccc2)n1` [Beispiel 16], the “Hemmung der Leukozyten-migration (Kontrolle = 0 %)” value is listed as 67%.

On to `Cc1nsc(NSc2ccc(Cl)cc2)n1` [Beispiel 17], for which the “Hemmung der Leukozyten-migration (Kontrolle = 0 %)” value is 53%.

`Cc1nnc(NSc2ccccc2)s1` [Beispiel 25]: the “Hemmung der Leukozyten-migration (Kontrolle = 0 %)” value came to 80%.

On to `FC(F)(F)c1cc(SNc2nc[nH]n2)ccc1Cl` [Beispiel 28], for which the “Hemmung der Leukozyten-migration (Kontrolle = 0 %)” value stood at 29%.

For `COC(=O)c1ccc(SNc2nc[nH]n2)cc1` [Beispiel 30], the “Hemmung der Leukozyten-migration (Kontrolle = 0 %)” value was 31%.

For `Clc1ccc(SNc2nnc(N3CCOCC3)s2)cc1` [Beispiel 37], the “Hemmung der Leukozyten-migration (Kontrolle = 0 %)” value is reported as 22%.

In the case of `Cc1nnc(NSc2ccc(Cl)cc2)s1` [Beispiel 39], the “Hemmung der Leukozyten-migration (Kontrolle = 0 %)” value stood at 60%.

For another test, the target named is T1, Plättchenlipoxygenase (Homo sapiens, UniProt P18054).
T1 construct: der Metabolismus radioaktiv markierter Arachidonsäure an gewaschenen Humanthrombozyten herangezogen; endogenous in cells; host or cells: washed human platelets
T1 sequence (P18054 1-663): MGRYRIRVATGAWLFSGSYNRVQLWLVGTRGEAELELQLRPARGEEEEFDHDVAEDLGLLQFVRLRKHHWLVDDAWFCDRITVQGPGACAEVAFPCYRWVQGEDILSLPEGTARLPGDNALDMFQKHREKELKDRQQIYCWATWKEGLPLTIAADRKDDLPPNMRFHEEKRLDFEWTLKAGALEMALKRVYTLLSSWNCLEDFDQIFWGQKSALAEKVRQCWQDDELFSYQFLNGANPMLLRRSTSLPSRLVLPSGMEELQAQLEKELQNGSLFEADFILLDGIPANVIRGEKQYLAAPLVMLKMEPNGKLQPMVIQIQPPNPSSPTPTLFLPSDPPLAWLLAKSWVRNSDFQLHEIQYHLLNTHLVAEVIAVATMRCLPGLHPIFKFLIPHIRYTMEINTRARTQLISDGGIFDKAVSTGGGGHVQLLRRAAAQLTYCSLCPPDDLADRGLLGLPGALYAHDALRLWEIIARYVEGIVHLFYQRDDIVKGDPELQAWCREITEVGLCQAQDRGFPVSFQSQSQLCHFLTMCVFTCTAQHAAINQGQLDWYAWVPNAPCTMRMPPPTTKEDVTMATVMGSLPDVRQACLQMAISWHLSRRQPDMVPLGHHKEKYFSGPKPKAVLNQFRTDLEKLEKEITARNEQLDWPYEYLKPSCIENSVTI
Nature of the test: Inhibition of platelet lipoxygenase (HETE synthesis), metabolism of radiolabelled arachidonic acid in washed human platelets. The conditions noted are these: HETE-Synthese, gewaschene Humanthrombozyten; lowest concentration giving at least 50 % inhibition. It is filed as cell-based. From the text: Der Nachweis der lipoxygenasehemmenden Eigenschaften der Sulfenamide erfolgt analog der Methode von Bailey et al., J. Biol. Chem. 255, 5996, (1980) und nach Blackwell und Flower, Brostaglandins 16, 417 (1979). Bei dieser Testmethode wird der Metabolismus radioaktiv markierter Arachidonsäure an gewaschenen Humanthrombozyten herangezogen. Bei diesem in vitro Test werden die radioaktiv markierten Metaboliten aus dem Reaktionsansatz extrahiert und dünnschichtchromatographisch getrennt. Das Autoradiogramm wird am Dünnschicht-Scanner ausgewertet. Bei diesen Testbedingungen werden die markierten Metaboliten von der nicht umgesetzten Arachidonsäure getrennt und sind anschließend quantitativ auswertbar. Die Verteilung der Radioaktivität auf die während der Metabolisierung gebildeten Cyclooxygenaseprodukte Thromboxan B2 (TXB2) und 12-Hydroxy-5,8,10-heptadekatriensäure (HHT) bzw. das Lipoxygenaseprodukt 12-Hydroxy-5,8,11,14-eikosatetraensäure (HETE) unter dem Einfluß der Inhibitoren stellt ein Maß für die Hemmung der Enzyme dar.
Die Lipoxygenasehemmung der erfindungsgemäßen Sulfenamide läßt sich an der Hemmung der HETE-Synthese messen.. Es zeigt sich, daß die Synthese von TXB2und von HHT unbeeinflußt bleibt, während der Arachidonsäureumsatz abnimmt. Wie aus der nachfolgenden Tabelle ersichtlich ist, bewirken die Sulfenamide eine signifikante Hemmung der Plättchenlipoxygenase (HETE-Synthese).
Hemmung der Plättchenlipoxygenase (HETE-Synthese)
For `c1ccc(SNc2ncccn2)cc1` [Beispiel 2], the “Minimale effektive Hemmkonzen-zentration (mindestens 50 % Hemmung)” value is listed as 10^-6 g/ml.

For `Clc1c(Cl)c(Cl)c(SNc2ncccn2)c(Cl)c1Cl` [Beispiel 4], the “Minimale effektive Hemmkonzen-zentration (mindestens 50 % Hemmung)” value is on record as 10^-6 g/ml.

For `Clc1ccc(SNc2ncccn2)cc1` [Beispiel 5], the “Minimale effektive Hemmkonzen-zentration (mindestens 50 % Hemmung)” value is 10^-6 g/ml.

In the case of `CC(C)(C)c1ccc(SNc2ncccn2)cc1` [Beispiel 6], the “Minimale effektive Hemmkonzen-zentration (mindestens 50 % Hemmung)” value was 10^-6 g/ml.

For `Clc1ccc(SNc2nc[nH]n2)cc1` [Beispiel 10], the “Minimale effektive Hemmkonzen-zentration (mindestens 50 % Hemmung)” value was 3e-06 g/mL.

In the case of `c1ccc(SNc2nc(-c3ccccc3)ns2)cc1` [Beispiel 12], the “Minimale effektive Hemmkonzen-zentration (mindestens 50 % Hemmung)” value was found to be 3e-06 g/mL.

Turning to `Clc1ccc(SNc2nc(-c3ccccc3)ns2)cc1` [Beispiel 13], the “Minimale effektive Hemmkonzen-zentration (mindestens 50 % Hemmung)” value is listed as 10^-6 g/ml.

Regarding `Cc1nsc(NSc2ccccc2)n1` [Beispiel 16], the “Minimale effektive Hemmkonzen-zentration (mindestens 50 % Hemmung)” value was found to be 3e-06 g/mL.

In the case of `Cc1nsc(NSc2ccc(Cl)cc2)n1` [Beispiel 17], the “Minimale effektive Hemmkonzen-zentration (mindestens 50 % Hemmung)” value is reported as 10^-6 g/ml.

In the case of `Cc1nc(NSc2ccccc2)ns1` [Beispiel 18], the “Minimale effektive Hemmkonzen-zentration (mindestens 50 % Hemmung)” value is reported as 10^-6 g/ml.

On to `CCCc1nsc(NSc2ccccc2)n1` [Beispiel 19], for which the “Minimale effektive Hemmkonzen-zentration (mindestens 50 % Hemmung)” value was 3e-06 g/mL.

On to `CCCc1nsc(NSc2ccc(Cl)cc2)n1` [Beispiel 20], for which the “Minimale effektive Hemmkonzen-zentration (mindestens 50 % Hemmung)” value worked out at 3e-06 g/mL.

Take `Clc1ccc(SNc2ccccn2)cc1` [Beispiel 23]: the “Minimale effektive Hemmkonzen-zentration (mindestens 50 % Hemmung)” value is recorded as 10^-5 g/ml.

On to `O=C1C(Sc2ccccc2)C(NSc2ccccc2)=NN1c1ccccc1` (stereo not drawn) [Beispiel 24], for which the “Minimale effektive Hemmkonzen-zentration (mindestens 50 % Hemmung)” value was found to be 3e-06 g/mL.
